According to patent US20230286973A1, “PROTEIN SECRETION INHIBITORS” (KEZAR LIFE SCIENCES, priority 2020, published 2023):
Values joined by “and” are separate entries in the source; they are usually repeats but may differ in a detail not shown here. Identical values can stand only once. Like-named read-outs stand apart in the source and are kept apart here.

What was measured:
[1] = test system: multiple myeloma cell line U266B1; test: U266 Cell Viability Assay; assay type: cell-based, human; conditions: Homo sapiens, U-266, 48 h, U266B1 cells, Celltiter-Glo
Procedure: (§1) The human multiple myeloma cell line U266B1 was cultured in RPMI 1640 media supplemented with 10% fetal bovine serum, 2 mM Glutamine, and 1× Penicillin/Streptomycin. Cells were plated in 384-well tissue culture plates and treated with compound dilutions in DMSO/media. Plates were incubated at 37° C., 5% CO2 for 48 hours. After 48 hours, Celltiter-Glo® (Promega) was added to each well and luciferase signal was quantified using Tecan Infinite M1000 Pro for cell viability determination.
(§2) For chemical structures that include one or more stereoisomers, but are illustrated without indicating stereochemistry, the assay data refers to a mixture of stereoisomers.

[2] = Liver Microsome Stability Assay (monkey); conditions: monkey liver microsomes, with NADPH, 1.0 uM compound
Procedure: (§4) Stability of a compound was assessed in the presence of liver microsomes from various sources—mouse, rat, monkey and human liver microsomes. 1.0 uM compound, 0.4% DMSO in 0.1 M Potassium Phosphate with 1.0 mg/mL liver microsomes, were incubated at 37° C. with or without 1 mM NADPH. The samples were quenched at 0, and 30 minutes.

[3] = test system: IL-2-FL/Gaussia Luciferase; test: Dox Induced IL2-FL-Gluc Assay; assay type: cell-based; conditions: for IC50: 24 hr Dox induction, 293FRT/TO cells, read-out: 24 hr Dox Inducible IL2FLGluc 293FRT/TO: Mean IC50; for 24 hr Dox Inducible IL2FLGluc 293FRT/TO: IL2/PD1: ratio of IL2FLGluc IC50 to PD1ssGluc IC50
Summary of the method: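 Cells are plated one day ahead, then receive compound dilutions in DMSO/media with doxycycline and incubate at 37° C, 5% CO2. They are Flp-In 293 T-REx cells expressing a full-length IL-2 (amino acids 1-153)–Gaussia luciferase fusion under T-REx control.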

[4] = test system: PD1-ss+10aa/Gaussia Luciferase; test: Dox-Induced PD1-ss-Gluc Assay; assay type: cell-based; conditions: 24 hr Dox induction, 293FRT/TO cells, read-out: 24 hr Dox Inducible PD1ssGluc 293FRT/TO: Mean IC50
Summary of the method: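 Gaussia luciferase fused downstream of the PD1 signal peptide plus 10 residues was expressed on doxycycline induction in stably transfected Flp-In 293 T-REx cells. Compounds were added with doxycycline and incubated at 37 °C, 5% CO2.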

[5] = Liver Microsome Stability Assay (mouse); conditions: mouse liver microsomes, with NADPH, 1.0 uM compound
Procedure: as §4

[6] = Liver Microsome Stability Assay (rat); conditions: rat liver microsomes, with NADPH, 1.0 uM compound
Procedure: as §4

[7] = test system: TNFα-FL/Gaussia Luciferase; test: Dox Induced TNFα-FL-Gluc Assay; assay type: cell-based; conditions: for IC50: 24 hr Dox induction, 293FRT/TO cells, read-out: 24 hr Dox Inducible TNFaFLGluc 293FRT/TO: Mean IC50; for 24 hr Dox Inducible TNFaFLGluc 293FRT/TO: TNF/PD1: ratio of TNFaFLGluc IC50 to PD1ssGluc IC50
Source text: (§3) Flp-In 293 T-REx™ cells were transfected with pcDNA™5/FRT/TO plasmid inserted with cDNA encoding Gaussia Luciferase fused to the 3′ end of cDNA encoding full length TNFα (amino acids 1-233). Transfected cells were selected for resistance to the selectable markers Hygromycin and Blasticidin to create a stable cell line that contained the TNFα-FL/Gaussia Luciferase cDNA insert whose expression was regulated under the T-REx™ system. The day before assay, cells were trypsinized and plated in 384-well tissue culture plates. The next day, compound dilutions in DMSO/media containing doxycycline were added to the wells and incubated at 37° C., 5% CO2.
as §2

[8] = test system: HER3-ss+4aa/Gaussia Luciferase; test: Dox-Induced Her3-ss-Gluc Assay; assay type: cell-based; conditions: 24 hr Dox induction, 293FRT/TO cells, read-out: 24 hr Dox Inducible Her3(ss + 4)Gluc 293FRT/TO: Mean IC50
Source text: as §3, with “HER3 signal sequence plus 4 amino” for “full length TNFα (amino”, “(N-[…]-C) (SEQ ID NO: 2).” for “1-233).”, “HER3-ss+4aa/Gaussia” for “TNFα-FL/Gaussia”
as §2

[9] = Liver Microsome Stability Assay (human); conditions: human liver microsomes, with NADPH, 1.0 uM compound
Procedure: as §4

[10] = test system: multiple myeloma cell line NCI-H929; test: H929 Cell Viability Assay; assay type: cell-based, human; conditions: NCI-H929 cells, Celltiter-Glo
Procedure: as §1, with “NCI-H929” for “U266B1”, “cultured in Advanced RPMI 1640 media (Gibco®) supplemented with 6% fetal bovine serum, 2 mM Glutamine, and 1× Penicillin/Streptomycin. On the day of assay, cells were resuspended” for “cultured”, “Penicillin/Streptomycin and” for “Penicillin/Streptomycin. Cells were”
as §2

[11] = '<=>' given where both are I.A.

Structure (SMILES)	EC50 [1]	Liver Microsome Stability (Multiple Species): Monkey - % Remaining after 30 min w/NADPH [2]	IC50 [3]	24 hr Dox Inducible IL2FLGluc 293FRT/TO: IL2/PD1 [3]	IC50 [4]	Liver Microsome Stability (Multiple Species): Mouse - % Remaining after 30 min w/NADPH [5]	Liver Microsome Stability (Multiple Species): Rat - % Remaining after 30 min w/NADPH [6]	IC50 [7]	24 hr Dox Inducible TNFaFLGluc 293FRT/TO: TNF/PD1 [7]	IC50 [8]	Liver Microsome Stability (Multiple Species): Human - % Remaining after 30 min w/NADPH [9]	EC50 ([10]; Homo sapiens, NCI-H929, 48 h)	IC50 ([3]; mean)	24 hr Dox Inducible IL2FLGluc 293FRT/TO: IL2/PD1 [3, 11]	IC50 ([4]; mean)	IC50 ([7]; mean)	24 hr Dox Inducible TNFaFLGluc 293FRT/TO: TNF/PD1 [7, 11]	IC50 ([8]; mean)	EC50 ([10]; 48 hr)
O=C(Nc1nc([C@H]2CCCN2c2ccc(OC3CCOCC3)cc2)cs1)c1cccn1Cc1ccncc1 [Compound A1, (R)-1-(pyridin-4-ylmethyl)-N-(4-(1-(4-((tetrahydro-2H-pyran-4-yl)oxy)phenyl)pyrrolidin-2-yl)thiazol-2-yl)-1H-pyrrole-2-carboxamide]	> 25000 nM	6.47%	53.8 nM	2	26.9 nM	24.8%	50%	369 nM	13.7	58.4 nM	14.3%	1230 nM	–	–	–	–	–	–	–
CS(=O)(=O)Nc1ccc(N2CCC[C@@H]2c2csc(NC(=O)c3cccn3Cc3ccnc(F)c3)n2)cc1 [Compound A118, (R)-1-((2-fluoropyridin-4-yl)methyl)-N-(4-(1-(4-(methylsulfonamido)phenyl)pyrrolidin-2-yl)thiazol-2-yl)-1H-pyrrole-2-carboxamide]	> 25000 nM	–	129 nM	1.2	103 nM	–	–	888 nM	8.6	135 nM	–	1800 nM	–	–	–	–	–	–	–
CNC(=O)Nc1ccc(N2CCC[C@@H]2c2csc(NC(=O)c3cccn3Cc3ccnc(F)c3)n2)cc1 [Compound A119, (R)-1-((2-fluoropyridin-4-yl)methyl)-N-(4-(1-(4-(3-methylureido)phenyl)pyrrolidin-2-yl)thiazol-2-yl)-1H-pyrrole-2-carboxamide]	> 25000 nM	–	7.35 nM	4.2	1.76 nM	–	–	41.3 nM	23.5	6.31 nM	–	133 nM	–	–	–	–	–	–	–
CC(C)Oc1ccc(N2CCC[C@@H]2c2csc(NC(=O)c3cccn3Cc3ccnc(F)c3)n2)cc1 [Compound A120, (R)-1-((2-fluoropyridin-4-yl)methyl)-N-(4-(1-(4-isopropoxyphenyl)pyrrolidin-2-yl)thiazol-2-yl)-1H-pyrrole-2-carboxamide]	> 25000 nM	–	42.6 nM	1.7	24.5 nM	–	–	158 nM	6.44	34.5 nM	–	831 nM	–	–	–	–	–	–	–
CCc1cccc2nc(/C=C/c3csc(NC(=O)c4cccn4Cc4ccnc(F)c4)n3)cn12 [Compound B78, (E)-N-(4-(2-(5-ethylimidazo[1,2-a]pyridin-2-yl)vinyl)thiazol-2-yl)-1-((2-fluoropyridin-4-yl)methyl)-1H-pyrrole-2-carboxamide]	> 25000 nM	–	> 25000 nM	>60	418 nM	–	–	> 25000 nM	>59.8	> 25000 nM	–	> 25000 nM	–	–	–	–	–	–	–
CCc1cccc2nc(/C=C/c3csc(NC(=O)c4cccn4Cc4ccncc4)n3)cn12 [Compound B79, (E)-N-(4-(2-(5-ethylimidazo[1,2-a]pyridin-2-yl)vinyl)thiazol-2-yl)-1-(pyridin-4-ylmethyl)-1H-pyrrole-2-carboxamide]	> 25000 nM	–	4340 nM	10	416 nM	–	–	> 25000 nM	>60.1	3580 nM	–	> 25000 nM	–	–	–	–	–	–	–
Cc1cn(C(C)C)nc1/C=C/c1csc(NC(=O)c2cccn2Cc2ccncc2)n1 [Compound B80, (E)-N-(4-(2-(1-isopropyl-4-methyl-1H-pyrazol-3-yl)vinyl)thiazol-2-yl)-1-(pyridin-4-ylmethyl)-1H-pyrrole-2-carboxamide]	19000 nM	–	5370 nM	14	372 nM	–	–	7270 nM	19.5	3140 nM	–	16200 nM	–	–	–	–	–	–	–
Cc1cnn(C(C)C)c1/C=C/c1csc(NC(=O)c2cccn2Cc2ccnc(F)c2)n1 [Compound B84, (E)-1-((2-fluoropyridin-4-yl)methyl)-N-(4-(2-(1-isopropyl-4-methyl-1H-pyrazol-5-yl)vinyl)thiazol-2-yl)-1H-pyrrole-2-carboxamide]	19100 nM	5.77% and 6.74%	2170 nM	2.4	905 nM	50.1% and 71.4%	–	1670 nM	1.84	2020 nM	10.6% and 16.9%	6850 nM	–	–	–	–	–	–	–
CO[C@H](CC#N)Cn1cccc1C(=O)Nc1nc([C@H]2CCCN2c2ccccc2)cs1 [Compound C108, 1-((R)-3-cyano-2-methoxypropyl)-N-(4-((R)-1-phenylpyrrolidin-2-yl)thiazol-2-yl)-1H-pyrrole-2-carboxamide]	> 25000 nM	2.55% and 1.11%	–	–	–	–	3.87% and 7.05%	–	–	–	8.71% and 7.07%	> 23800 nM	4510 nM and 3480 nM	1.9 and 2.2	2400 nM and 1590 nM	> 25000 nM and 17900 nM	> 10.4 and 11.3	2410 nM and 2480 nM	20300 nM
